Here are results for eight molecules from patent US20050216965A1, “Method of detecting and reducing boar taint” (UNIVERSITY OF GUELPH, priority 1998, published 2005).

Series [1] relates to cytochrome P450. How it is done:
The metabolism of skatole was assayed in a medium containing 50 mM Tris-HCL buffer, pH 7.4, 10 mM potassium phosphate, 0.1 mM EDTA, 20% glycerol, 0.01 mM skatole and 1 mg/mL microsomel protein in a total volume of 2 mL. The reactions were started by addition of NADH and NADPH to 1 mM final concentration of each after 3 min of preincubation at 37° C. After 30 min at 37° C., the reactions were terminated by addition of 2 mL of ice-cold 0.2 M ammonium acetate buffer, pH 5.0.
Those incubations with no inhibitor added were regarded as controls. The effect of different P450 inhibitors on skatole metabolism was evaluated under the same conditions by including different concentrations of P450 inhibitors into the medium before preincubation.
Each assay was performed in duplicate. […] After adding ammonium acetate buffer, 5 μL of 0.01 mg/mL indole-3-acetonitrile was added to the reaction mixture as an internal standard. The mixture was then passed through a solid phase extraction tC18 cartridge (Waters Co., Milford, Mass.) previously conditioned with 2 mL of methanol and then 2 mL of water. The column was washed with 1 mL of water and skatole metabolites were eluted with 2×0.5 mL of acetonitrile. The acetonitrile was removed under a gentle stream of nitrogen at 40° C. and the metabolites were resuspended in 200 μl of acetonitrile for HPLC analysis. The HPLC equipment included a Spectra-Physics (San Jose, Calif., USA) SP8800 pump, SP8800 autosampler and SP4290 integrator, and a Phenomenex (Torrance, Calif., USA) Prodigy ODS-2 C18, 250×4.6 mm, 5 μm column. […] Injection volume was 100 μl.
For the purpose of the analysis, peak areas of the metabolites in control incubations were considered as 100%. Peak areas of the metabolites in the incubations with inhibitors were transformed to values of those for controls. The statistical model included the effect of the concentration of inhibitor and the effect of animal.

The subject of series [2] is thermostable phenol sulfotransferase. As to the kind of experiment: Sulfation of 5-OH-3MI by liver cytosol with phenolsulfotransferase inhibitors (Trial III). The format is biochemical. The note with it: pig liver cytosol, 0.01 mM 5-OH-3MI, 1 mM PAPS, 10 min. As for the experimental part:
Trial III. The assay of 5-OH-3MI sulfation in Trial III utilized 1 mg cytosolic protein incubated with 0.01 mM 5-OH-3MI and 1 mM PAPS in 0.05M Tris/HCl pH 7.4 buffer containing 5 mM MgC12 in a total volume of 250 μl. The incubations were carried out in a shaking water bath at 37° C. for 10 min and the reaction was stopped with 250 μL ice-cold acetonitrile. After the addition of acetonitrile, the mixture was vortexed and centrifuged at 4,000 g for 15 min. A 400 μL aliquot of the clear supernatant was diluted with 400 μL water and 100 μL of the mixture was analyzed immediately by high-performance liquid chromatography (HPLC) as described below. Conjugates were identified based on the following criteria: (1) no peaks corresponding to conjugates appeared when cytosol and/or PAPS were excluded from the incubations; (2) no peaks corresponding to conjugates appeared when boiled cytosol was used, and (3) the peaks corresponding to the conjugates disappeared after addition of 10 μl of type H-2 sulfatase to the incubation mixture and further incubation for 3 h at 37° C. in a shaking water bath. Sulfation activity was measured as the formation of sulfoconjugate per minute per mg of cytosolic protein.
The effects of the phenolsulfotransferase inhibitors PCP and DCNP on the sulfation of 5-OH-3MI were determined by including different final concentrations of PCP or DCNP (0.001, 0.01, 0.1, 1, 10, 100 μM) in the assays. PCP was dissolved in methanol (final assay concentration 1%, v/v) and control incubations for PCP inihibition studies contained 1% methanol. DCNP was dissolved in incubation buffer.
Trial III. 5-OH-skatole and its sulfate conjugate were separated using a previously reported binary gradient system method (Hernandez et al., 1991) with a reverse-phase Prodigy ODS, 5 μm, 250×4.6 mm column (Phenomenex, Torrance, Calif., USA). The mobile phase consisted of 0.05M ammonium acetate buffer pH 5.0, at a flow rate of 1.2 ml/min. A 25-min linear gradient from 10 to 60% acetonitrile was used, with initiation of the gradient 2 min after sample injection. 5-OH-skatole and its conjugate were determined by their fluorescence (excitation wavelength of 285 nm, emission wavelength of 350 nm). Typical retention times for 5-OH-skatole and its conjugate were 18.5 and 13.4 min, respectively.

In series [3] the test system is glucuronyl transferase. Put plainly: Conjugation of microsomal skatole metabolites with glucuronic acid (Trial II-c). The series is classed as in vitro ADME. Conditions: pig liver microsomes, 1 mM UDP-GA, 30 min. As for the experimental part:
(§1) Trial II. For evaluation of skatole metabolite production (Trial II-a, n=22), 1 mg/ml of liver microsomes were incubated in Buffer 1,1 mM NADPH, 1 mM NADH, and 0.01 mM skatole in a total volume of 2 ml for 30 min at 37° C. as previously described (Babol et al., 1997). To determine which microsomal skatole metabolites are conjugated with sulfate (Trial II-b, n=3), the reaction mixture was first incubated for 30 min as in Trial II-a. PAPS was then added to 1 mM final concentration and the incubation continued for 30, 60 and 90 min. Control incubations were performed for the same period of time with no PAPS added. Assays to evaluate the conjugation of skatole metabolites with glucuronic acid (Trial II-c, n=3) were conducted in a similar way by adding 1 mM of UDP-GA after 30 min of initial incubation and continuing the incubation for a further 7.5, 15 and 30 min. […]
(§2) Trial II. […] The metabolites were separated with RP C18 column and detected by measuring UV absorbance at 250 nm and fluorescence with excitation and emission wavelengths set at 285 and 340 nm.
(§3) Trial II. The effect of time of incubation of skatole metabolites with PAPS (Trial I1-b) and UDPGA (Trial I1-c) on the concentrations of the metabolites was analyzed using untransformed values with the GLM procedure. […] The differences in the metabolic activities among the groups were analyzed with the GLM procedure.
For orientation: Liver microsomes are a subcellular fraction often used to study metabolism.

In series [4] the test system is sulfotransferase. As to the kind of experiment: Conjugation of microsomal skatole metabolites with sulfate (Trial II-b). The series is classed as in vitro ADME. The note with it: pig liver microsomes, 1 mM PAPS, 90 min. How it is done: as §1, §2, §3
Series [5] has as its target CYP2E1 (Sus scrofa, UniProt P79383). Conditions: uncastrated Yorkshire male pigs; 0.5 g/kg BW daily by gavage, day 14 to day 50; after day 27; P<0.05. As for the experimental part:
Eight uncastrated Yorkshire male pigs were utilized in the study. Four males were assigned to the control group while the remaining four were treated with 0.5 g/kg BW of ethanol daily by gavage. Ethanol is a well-established inducer of CYP2E1. Treatment began at day 14 and continued until day 50. Blood samples were collected weekly and plasma skatole levels were measured by HPLC.

Structures can show the parent of a compound that is named as a salt.

Chain of CYP2E1 (P79383 whole entry): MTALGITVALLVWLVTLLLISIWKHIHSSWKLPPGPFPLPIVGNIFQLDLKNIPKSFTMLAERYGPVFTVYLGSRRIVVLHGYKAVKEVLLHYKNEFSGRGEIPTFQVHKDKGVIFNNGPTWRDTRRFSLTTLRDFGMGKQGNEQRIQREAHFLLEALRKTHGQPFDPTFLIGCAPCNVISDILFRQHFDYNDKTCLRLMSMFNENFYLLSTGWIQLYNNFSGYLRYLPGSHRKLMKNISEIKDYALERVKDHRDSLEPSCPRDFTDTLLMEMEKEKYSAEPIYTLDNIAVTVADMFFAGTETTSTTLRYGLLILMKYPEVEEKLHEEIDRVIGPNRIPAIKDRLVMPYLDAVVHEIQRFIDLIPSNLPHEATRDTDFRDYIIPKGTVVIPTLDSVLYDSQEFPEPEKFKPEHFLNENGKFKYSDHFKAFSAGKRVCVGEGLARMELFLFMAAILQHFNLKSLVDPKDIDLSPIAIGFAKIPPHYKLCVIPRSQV

On to `C=CCSCC=C` [DAS, diallyl sulfide], for which, in series [1], the “Formation of all the other skatole metabolites, except for F-1” value is listed as “inhibited” and the “Skatole disappearance, effect in words” value is reported as “reduced”.

As for `CC(C)(C(=O)c1cccnc1)c1cccnc1` [metyrapone], in series [1], the “Amount of skatole remaining in the reaction mixture after incubation versus control” value is recorded as “higher” and the “Formation of UV-3, effect in words” value was “reduced”.

For the molecule `O=[N+]([O-])c1cc(Cl)c(O)c(Cl)c1` [DCNP, 2,6-dichloro-4-nitrophenol], the “5-sulfatoxyskatole production, % of the control” value is given as 13.8% in series [2] (inhibitor 10 μM) and 7.1% in series [2] (inhibitor 100 μM).

Consider `Oc1c(Cl)c(Cl)c(Cl)c(Cl)c1Cl` [PCP, Pentachlorophenol], for which the “5-sulfatoxyskatole production, % of the control” value in series [2] (inhibitor 10 μM) worked out at 35.3%; in series [2] (inhibitor 100 μM), 8%.

Consider `Cc1c[nH]c2ccccc12` [skatole, 3-methylindole], for which, in series [3], the “Concentration in incubation with UDPGA, % of control incubations” value was found to be 126.1%.

As for `CCCC(C(=O)OCCN(CC)CC)(c1ccccc1)c1ccccc1` [SKF 525A, SKF 525A hydrochloride (Proadifen)], in series [1], the “Amount of skatole remaining in the reaction mixture after incubation versus control” value is “not affected”; the “Formation of F-2, effect in words” value is listed as “reduced”; the “Formation of F-3, effect in words” value is “reduced”; the “Formation of UV-3, effect in words” value is “reduced”.

For `Cc1c[nH]c2cc(O)ccc12` [pro-MII, 6-Hydroxy-3-methylindole], the “Concentration in incubation with UDPGA, % of control incubations” value in series [3] is 20%. In series [4], the “Concentration in incubation with PAPS, % of control” value is reported as 40%.

In the case of `CCO` [ethanol], in series [5], the “Plasma skatole levels versus control group” value was “significantly lower”.
